Data reported in patent US8772321B2, “Heteroannelated anthraquinone derivatives for inhibiting cancers” (National Defense Medical Center, priority 2008, dated 2014).

How the values were obtained:
Experiment in all cases: NCI 60-cell one dose screen
Format in all cases: cell-based, human
ACHN = ACHN (Renal cancer); 10^−5M
Description: (§1) NSC745885 was studied as a prototype for anti-proliferative activity against human cancer cell lines in NCI Drug Screen Program (Table 1, below). NSC745885 was evaluated in the full panel of human tumor cell lines derived from nine cancer cell types (leukemia, non-small cell lung cancer, colon cancer, CNS cancer, prostate cancer, melanoma, ovarian cancer, renal cancer and breast cancer). Each subpanel uses several cell lines and dose-response curves were drawn against the decadic logarithm (log 10) of the corresponding drug concentrations for each cell line by the subpanel group. They were also evaluated in the 60 cell line panel and anticancer assay was performed in accordance with the protocol of developmental therapeutics program (one dose mean graph). Results for each compound were reported as the proliferation percentage of the treated cells with that of the untreated control cells being 100. For each of these parameters the averaged values of mean graph midpoint (MG_MID) were calculated.

CAK1-1 = CAK1-1 (Renal cancer); 10^−5M
Description: as §1

CCRF-CEM = CCRF-CEM (Leukemia); 10^−5M
Description: as §1

DU-145 = DU-145 (Prostate cancer); 10^−5M
Description: as §1

EKVX = EKVX (Non-small cell lung cancer); 10^−5M
Description: as §1

HCC-2998 = HCC-2998 (Colon cancer); 10^−5M
Description: as §1

HL-60(TB) = HL-60(TB) (Leukemia); 10^−5M
Description: as §1

K-562 = K-562 (Leukemia); 10^−5M
Description: as §1

KM12 = KM12 (Colon cancer); 10^−5M
Description: as §1

LOX IMVI = LOX IMVI (Melanoma); 10^−5M
Description: as §1

MALME-3M = MALME-3M (Melanoma); 10^−5M
Description: as §1

MDA-MB-435 = MDA-MB-435 (Breast cancer); 10^−5M
Description: as §1

MOLT-4 = MOLT-4 (Leukemia); 10^−5M
Description: as §1

NCI-H23 = NCI-H23 (Non-small cell lung cancer); 10^−5M
Description: as §1

NCI-H460 = NCI-H460 (Non-small cell lung cancer); 10^−5M
Description: as §1

NCI/ADR-RES = NCI/ADR-RES (Ovarian cancer); 10^−5M
Description: as §1

OVCAR-3 = OVCAR-3 (Ovarian cancer); 10^−5M
Description: as §1

OVCAR-5 = OVCAR-5 (Ovarian cancer); 10^−5M
Description: as §1

RPMI-8226 = RPMI-8226 (Leukemia); 10^−5M
Description: as §1

SF-268 = SF-268 (CNS cancer); 10^−5M
Description: as §1

SF-539 = SF-539 (CNS cancer); 10^−5M
Description: as §1

SK-MEL-28 = SK-MEL-28 (Melanoma); 10^−5M
Description: as §1

SK-MEL-2 = SK-MEL-2 (Melanoma); 10^−5M
Description: as §1

SK-MEL-5 = SK-MEL-5 (Melanoma); 10^−5M
Description: as §1

SK-OV-3 = SK-OV-3 (Ovarian cancer); 10^−5M
Description: as §1

SNB-75 = SNB-75 (CNS cancer); 10^−5M
Description: as §1

SW-620 = SW-620 (Colon cancer); 10^−5M
Description: as §1

T-47D = T-47D (Breast cancer); 10^−5M
Description: as §1

UACC-62 = UACC-62 (Melanoma); 10^−5M
Description: as §1

UO-31 = UO-31 (Renal cancer); 10^−5M
Description: as §1

Question: Which proliferation percentage (ACHN) does the source give for `O=C1c2ccccc2C(=O)c2c1ccc1nsnc21` [NSC745885, anthra[2,1-c][1,2,5]thiadiazole-6,11-dione] here?
Answer: −94.31%

Question: And the proliferation percentage (CAK1-1)?
Answer: 1.97%

Question: What about the proliferation percentage (CCRF-CEM) of the same compound?
Answer: −30.81%

Question: What about the proliferation percentage (DU-145) of the same compound?
Answer: 40.76%

Question: And the proliferation percentage (EKVX)?
Answer: 103.18%

Question: And the proliferation percentage (HCC-2998)?
Answer: −0.74%

Question: What about the proliferation percentage (HL-60(TB)) of the same compound?
Answer: −21.77%

Question: And the proliferation percentage (K-562)?
Answer: 49.61%

Question: What about the proliferation percentage (KM12) of the same compound?
Answer: 98.60%

Question: And the proliferation percentage (LOX IMVI)?
Answer: −50.63%

Question: And the proliferation percentage (MALME-3M)?
Answer: −71.54%

Question: And the proliferation percentage (MDA-MB-435)?
Answer: −87.88%

Question: What about the proliferation percentage (MOLT-4) of the same compound?
Answer: −40.09%

Question: And the proliferation percentage (NCI-H23)?
Answer: 16.07%

Question: And the proliferation percentage (NCI-H460)?
Answer: 77.41%

Question: And the proliferation percentage (NCI/ADR-RES)?
Answer: −2.53%

Question: And the proliferation percentage (OVCAR-3)?
Answer: −15.47%

Question: What about the proliferation percentage (OVCAR-5) of the same compound?
Answer: −20.07%

Question: What about the proliferation percentage (RPMI-8226) of the same compound?
Answer: −27.97%

Question: And the proliferation percentage (SF-268)?
Answer: 16.29%

Question: And the proliferation percentage (SF-539)?
Answer: −47.11%

Question: What about the proliferation percentage (SK-MEL-28) of the same compound?
Answer: 15.47%

Question: And the proliferation percentage (SK-MEL-2)?
Answer: −73.16%

Question: What about the proliferation percentage (SK-MEL-5) of the same compound?
Answer: 8.52%

Question: And the proliferation percentage (SK-OV-3)?
Answer: 100.70%

Question: And the proliferation percentage (SNB-75)?
Answer: 79.03%

Question: And the proliferation percentage (SW-620)?
Answer: 7.30%

Question: And the proliferation percentage (T-47D)?
Answer: −45.52%

Question: And the proliferation percentage (UACC-62)?
Answer: −82.32%

Question: And the proliferation percentage (UO-31)?
Answer: −79.30%
